Results from US20140315886A1, “QUINAZOLINES AS THERAPEUTIC COMPOUNDS AND RELATED METHODS OF USE” (OTSUKA PHARMACEUTICAL CO., LTD., priority 2011, published 2014).
Structures can show the parent of a compound that is named as a salt.

Target: T1, purified STEP46 enzyme (Homo sapiens, UniProt P54829)
T1 sequence (P54829 197-565 limits assumed): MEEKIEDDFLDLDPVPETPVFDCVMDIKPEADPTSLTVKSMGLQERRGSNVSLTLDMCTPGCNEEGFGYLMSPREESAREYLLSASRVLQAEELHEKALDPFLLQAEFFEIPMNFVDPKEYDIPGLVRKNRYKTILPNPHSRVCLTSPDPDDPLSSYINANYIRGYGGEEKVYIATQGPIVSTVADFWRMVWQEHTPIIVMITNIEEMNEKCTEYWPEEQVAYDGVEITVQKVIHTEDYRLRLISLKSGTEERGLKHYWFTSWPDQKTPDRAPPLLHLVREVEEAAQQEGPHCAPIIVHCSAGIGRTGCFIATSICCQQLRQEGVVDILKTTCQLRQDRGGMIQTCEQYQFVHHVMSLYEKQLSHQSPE
Assay: STEP46 biochemical assay (DiFMUP fluorescence phosphatase assay)
Conditions: DiFMUP 10 μM, read-out: STEP IC50
Procedure: Serial dilutions of compounds were performed in 100% DMSO and 1 uL of compounds were dispensed into 384-well black polystyrene plates (Corning, N.Y.). Compounds were incubated with 24 uL of buffer containing 50 mM Hepes, 1 mM DTT, 0.02% Brij35, 1 ng/well purified STEP46 enzyme for […] at room temperature. The reaction was initiated by addition of 25 uL of DiFMUP (6,8-difluoro-4-methylumbelliferyl phosphate) (InVitrogen, CA) with a final concentration of 10 μM and incubated at 27° C. for 90 mM Final DMSO concentration is 2%. Plates were read with florescence intensity at excitation/emission of 360/460 nm using a PheraStar plate reader (BMG Labtech, NC).
Data were expressed as percentage (%) inhibition of enzyme activity. 0% inhibition is defined as the RFUs (relative fluorescence units) in the absence of compounds and 100% inhibition is defined as RFUs in the absence of STEP46 enzyme. IC50 values of compounds with inhibitory activity against STEP46 were determined by GraphPad Prism (version 4.03) using four parameter logistic equation. Some compounds act as activators. For compounds showing STEP46 enzymatic activation, data are represented as percentage of inhibition but with negative values at three representative concentrations (25, 50 and 100 uM).

Structure (SMILES)	IC50 [µM]
CNc1nc(-c2cccnc2)nc2ccc(OCCCN3CCN(C)CC3)cc12 [Compound 136, N-methyl-6-(3-(4-methylpiperazin-1-yl)propoxy)-2-(pyridin-3-yl)quinazolin-4-amine tetrahydrochloride]	1 to 10
CNc1nc(-c2cccnc2)nc2c(-c3ccc(F)c(F)c3)cccc12 [Compound 278]	1 to 10
CNc1nc(-c2cccnc2)nc2cc(-c3ccsc3)ccc12 [Compound 320]	1 to 10
Cc1ccc2c(c1)CCN2c1nc(-c2cccnc2)nc2ccc(-c3cccc(F)c3F)cc12 [Compound 74]	1 to 10
Brc1ccc2nc(-c3cccnc3)nc(N3CCc4ccccc43)c2c1 [Compound 19]	1 to 10
COc1ccc2nc(-c3cccnc3)nc(Nc3cc(Cl)ccn3)c2c1 [Compound 45, N-(4-chloropyridin-2-yl)-6-methoxy-2-(pyridin-3-yl)quinazolin-4-amine]	> 10
CNc1nc(-c2cnccn2)nc2cc(-c3cc(F)cc(F)c3)ccc12 [Compound 398]	1 to 10
CNc1nc(-c2cccnc2)nc2c(-c3cccc(C#N)c3)ccc(OC)c12 [Compound 489, 3—(5-methoxy-4-(methylamino)-2-(pyridin-3-yl)quinazolin-8-yl)benzonitrile dihydrochloride]	1 to 10
CNc1nc(-c2cccnc2)nc2c(F)c(-c3ccsc3)ccc12 [Compound 527]	1 to 10
Clc1ccc2c(c1)CCN2c1nc(-c2cccnc2)nc2cc(Br)ccc12 [Compound 14]	1 to 10
CNc1nc(-c2cccnc2)nc2cc(F)c(-c3ccc(C#N)cc3)cc12 [Compound 592]	1 to 10
CNc1nc(-c2cccnc2)nc2c(F)c(-c3ccc4[nH]ncc4c3)ccc12 [Compound 535]	1 to 10
Nc1nc(-c2cncnc2)nc2ccc(-c3cccc(F)c3)cc12 [Compound 213]	> 10
COc1ccc2nc(-c3cccnc3)nc(Nc3ccc(F)cn3)c2c1 [Compound 24]	1 to 10
Fc1ccc(-c2ccc3nc(-c4cccnc4)nc(N4CCc5cc(Cl)ccc54)c3c2)cc1 [Compound 86]	1 to 10
CC(Nc1nc(-c2cccnc2)nc2ccc(-c3ccc(F)c(F)c3)cc12)c1ccccc1 (centres unmarked) [Compound 350]	1 to 10
CNc1nc(-c2cccnc2)nc2ccc(-c3cc(OC(F)(F)F)ccc3F)cc12 [Compound 263]	1 to 10
CCOc1cccc(-c2ccc3c(NC)nc(-c4cccnc4)nc3c2)c1 [Compound 141]	1 to 10
CNc1nc(-c2cccnc2)nc2c(OC)cc(-c3cccc(Cl)c3)cc12 [Compound 305]	1 to 10
CNc1nc(-c2cccnc2)nc2c(F)c(-c3ccoc3)ccc12 [Compound 530]	1 to 10
CCOc1ccc2nc(-c3cccnc3)nc(N3CCc4ccc(Cl)cc43)c2c1 [Compound 5]	1 to 10
[2H]C([2H])([2H])Nc1nc(-c2cccnc2)nc2cc(-c3cc(F)ccc3F)ccc12 [Compound 390]	1 to 10
CNc1nc(-c2cccnc2)nc2c(-c3ccc(F)cc3F)ccc(OC)c12 [Compound 490]	1 to 10
CNc1nc(-c2cncc(C#N)c2)nc2cc(-c3cc(F)ccc3F)ccc12 [Compound 163]	1 to 10

Structure (SMILES)	IC50 [µM]
CNc1nc(-c2cccnc2)nc2ccc(-c3ccc4c(c3)SCC(=O)N4)cc12 [Compound 471]	1 to 10
CNc1nc(-c2cccnc2)nc2cc(-c3ccc(F)cc3F)c(F)cc12 [Compound 551]	1 to 10
CNc1nc(-c2cccnc2)nc2ccc(-c3cccc(-c4nccs4)c3)cc12 [Compound 473]	< 1
CNc1nc(-c2cncnc2)nc2ccc(-c3cccc(F)c3)cc12 [Compound 210]	1 to 10
CNc1nc(-c2cccnc2)nc2c(OC)cc(-c3cc(F)cc(F)c3)cc12 [Compound 204]	1 to 10
COc1ccc2nc(-c3cccnc3)nc(Nc3ccnc(F)c3)c2c1 [Compound 43]	< 1
CNc1nc(-c2cccnc2)nc2c(F)c(-c3cc4ccccc4s3)ccc12 [Compound 534]	> 10
CNc1nc(-c2cccnc2)nc2c(Cl)cc(-c3cccc(F)c3)cc12 [Compound 264]	1 to 10
Fc1cncc(Nc2nc(-c3cccnc3)nc3ccc(Cl)cc23)c1 [Compound 48]	1 to 10
Clc1ccc2c(c1)CCN2c1nc(-c2cccnc2)nc2cc(-c3cncnc3)ccc12 [Compound 101]	< 1
Fc1cccc(-c2ccc3nc(-c4cccnc4)nc(NCCc4ccccn4)c3c2)c1 [Compound 336]	1 to 10
CNc1nc(-c2cccnc2)nc2c(C)c(-c3cc(F)c(F)cc3F)ccc12 [Compound 287]	> 10
CNc1nc(-c2cccnc2)nc2c(F)cc(-c3cccc(OC)c3)cc12 [Compound 574]	1 to 10
CNc1nc(-c2cccnc2)nc2c(C)c(-c3ccccc3C)ccc12 [Compound 297]	> 10
Cc1ccc(Nc2nc(-c3cccnc3)nc3ccc(-c4ccc(F)cc4)cc23)nc1 [Compound 441]	1 to 10
Cn1ccc2c(-c3ccc4nc(-c5cccnc5)nc(NCc5ccccn5)c4c3)cccc21 [Compound 341]	> 10
Fc1ccc(-c2ccc3c(N4CCc5cc(Cl)ccc54)nc(-c4cccnc4)nc3c2)c(F)c1 [Compound 94]	1 to 10
CNc1nc(-c2cncc(F)c2)nc2cc(-c3cc(F)ccc3F)ccc12 [Compound 157]	1 to 10
CNc1nc(-c2cccnc2F)nc2ccc(-c3cccc(F)c3)cc12 [Compound 214]	1 to 10
CNc1nc(-c2cccnc2)nc2ccc(-c3ccc(C)cc3F)cc12 [Compound 239]	1 to 10
CNc1nc(-c2cccnc2)nc2ccc(-c3cccc4c3CNC4=O)cc12 [Compound 450]	1 to 10
CNc1nc(-c2cccnc2)nc2c(OC)cc(-c3cc(F)ccc3F)cc12 [Compound 252]	1 to 10
CNc1nc(-c2cncc(OC)c2)nc2cc(-c3cc(F)ccc3F)ccc12 [Compound 162]	1 to 10
CNc1nc(-c2cccnc2)nc2c(F)c(-c3cccc(F)c3)ccc12 [Compound 510]	1 to 10

Structure (SMILES)	IC50 [µM]
Cn1ccc2cc(-c3ccc4nc(-c5cccnc5)nc(NCCc5ccccn5)c4c3)ccc21 [Compound 346]	< 1
Cc1c(-c2cc(F)c(F)c(F)c2)ccc2c(N(C)C)nc(-c3cccnc3)nc12 [Compound 292]	1 to 10
c1ccc(CNc2nc(-c3cccnc3)nc3ccc(-c4ccco4)cc23)nc1 [Compound 348]	1 to 10
COc1ccc2nc(-c3cccnc3)nc(Nc3ccc(C#N)cn3)c2c1 [Compound 46]	1 to 10
CNc1nc(-c2cnccn2)nc2cc(-c3ccc(F)cc3F)ccc12 [Compound 395]	1 to 10
CNc1nc(-c2cccnc2)nc2c(F)c(-c3ccc4c(cnn4C)c3)ccc12 [Compound 532]	< 1
Fc1cccc(-c2ccc3nc(-c4cccnc4)nc(NCc4ccccn4)c3c2)c1 [Compound 373]	> 10
CCOc1cccc(-c2ccc3nc(-c4cccnc4)nc(NC)c3c2)c1F [Compound 242]	> 10
CNc1nc(-c2cccnc2)nc2ccc(-c3ccc4c(c3)NC(=O)CO4)cc12 [Compound 469]	< 1
CNc1nc(-c2cccnc2)nc2ccc(-c3c(F)cccc3Cl)cc12 [Compound 241]	1 to 10
CNc1nc(-c2cccnc2)nc2c(OC)cc(-c3ccccc3F)cc12 [Compound 254]	1 to 10
CNc1nc(-c2cccnc2)nc2ccc(-c3ncco3)cc12 [Compound 178]	> 10
c1ccc(CNc2nc(-c3cccnc3)nc3ccc(-c4cccs4)cc23)nc1 [Compound 601]	1 to 10
CNc1nc(-c2cccnc2)nc2c(C)c(-c3ccc(C)cc3)ccc12 [Compound 296]	> 10
Fc1ccc(-c2ccc3nc(-c4cccnc4)nc(-c4cscn4)c3c2)c(F)c1 [Compound 421, 4-(6-(2,4-difluorophenyl)-2-(pyridin-3-yl)quinazolin-4-yl)thiazole]	< 1
CNc1nc(-c2cccnc2)nc2ccc(-c3cccc(F)c3)c(F)c12 [Compound 223]	1 to 10
CCOc1ccc2nc(-c3cccnc3)nc(Nc3cncc(F)c3)c2c1 [Compound 47]	1 to 10
CNc1nc(-c2ccc(C)nc2)nc2cc(-c3cc(F)ccc3F)ccc12 [Compound 161]	1 to 10
CNc1nc(-c2cccnc2)nc2c(-c3cc(F)cc(OC)c3)ccc(OC)c12 [Compound 498]	1 to 10
CNc1nc(-c2cccnc2)nc2cc(-c3ccc(F)cc3)c(F)cc12 [Compound 553]	1 to 10
COc1ccc2c(c1)CCN2c1nc(-c2cccnc2)nc2ccc(-c3ccc(F)cc3)cc12 [Compound 90]	< 1
CNC(=O)COc1cc(F)cc(-c2ccc3c(NC)nc(-c4cccnc4)nc3c2)c1 [Compound 142]	1 to 10
CNc1nc(-c2cccnc2)nc2c(F)c(-c3cc(F)ccc3F)ccc12 [Compound 514]	1 to 10
